Experimental findings from ChEMBL document CHEMBL4330066, “Carbohydrate-naphthalene diimide conjugates as potential antiparasitic drugs: Synthesis, evaluation and structure-activity studies” (Eur J Med Chem, 2019) are described below.

Calls of active or inactive are those of the source. No cut-off for these calls is given here. Bounds are passed on as bounds.

One data set concerns MRC5. Put plainly: Cytotoxicity against human MRC5 cells assessed as reduction in cell viability after 48 hrs by MTT assay. Format: cell-based. The settings on record: MRC5, 48 h. A general note: Formazan colour is commonly taken as a measure of viable cells.
Data set [1] relates to Trypanosoma brucei. Put plainly: Stabilization of 5'-FAM /3'-Tamra labelled Trypanosoma brucei F21T G-quadruplex DNA at 2 x 10^-6 M by FRET melting assay.
Data set [2] has as its system Quadruplex DNA. Kind of data set: Binding affinity to 22AG telomeric G-quadruplex DNA (unknown origin) assessed as association constant by fluorescence titration assay. Format: nucleic-acid assay.
Data set [3] has as its system Trypanosoma brucei. Put plainly: Stabilization of Trypanosoma brucei EBR1 G-quadruplex DNA up to 30 x 10^-6 M by CD titration assay.
Data set [4] can be described thus: Drug localization in kinetoplast of Trypanosoma brucei at 5 x 10^-6 M after 4 hrs by DAPI staining-based fluorescence confocal microscopy method. Format: ADME, subcellular. The settings on record: 5 µM.
The subject of data set [5] is Leishmania major. Kind of data set: Leishmaniacidal activity against Leishmania major MHOM/IL/80/Friedlin promastigotes after 72 hrs by MTT assay. The data set is classed as functional, organism-based.
The nature of data set [6]: Selectivity index, ratio of IC50 for human MRC5 cells to IC50 for Trypanosoma brucei Lister 427, antigenic type MiTat 1.2, clone 221a. Format: toxicity. The settings on record: MRC5 cells versus Trypanosoma brucei Lister 427, read-out: Ratio IC50.
The test system of data set [7] is Leishmania major. Put plainly: Leishmaniacidal activity against Leishmania major MHOM/IL/80/Friedlin amastigotes infected in human THP1 cells after 72 hrs by luciferase luminescence assay. The data set is classed as functional, organism-based. The settings on record: THP-1, 72 h.
Data set [8] concerns Trypanosoma brucei. Put plainly: Binding affinity to Trypanosoma brucei EBR1 G-quadruplex DNA assessed as association constant by fluorescence titration assay.
Data set [9] deals with Trypanosoma brucei. Put plainly: Trypanocidal activity against Trypanosoma brucei Lister 427, antigenic type MiTat 1.2, clone 221a after 72 hrs by alamarBlue assay. Format: functional, organism-based. The conditions noted are these: Lister 427, 72 h. Background: Alamar Blue is a resazurin reagent that responds to reducing activity.
The test system of data set [10] is Trypanosoma brucei. Put plainly: Stabilization of 5'-FAM /3'-Tamra labelled Trypanosoma brucei EBR1-FT G-quadruplex DNA in presence of 1 x 10^-5 M dsDNA competitior by FRET melting assay relative to control.
Data set [11] has as its system Trypanosoma brucei. Put plainly: Stabilization of 5'-FAM /3'-Tamra labelled Trypanosoma brucei EBR1-FT G-quadruplex DNA at 2 x 10^-6 M by FRET melting assay.
Data set [12] concerns Quadruplex DNA. Kind of data set: Stabilization of 22AG telomeric G-quadruplex DNA (unknown origin) assessed as red shift at 8 uM by fluorescence absorption emisssion spectroscopy method. The data set is classed as nucleic-acid assay.
Data set [13] relates to Trypanosoma brucei. Put plainly: Stabilization of 5'-FAM /3'-Tamra labelled Trypanosoma brucei F21T G-quadruplex DNA in presence of 3 x […] M dsDNA competitior by FRET melting assay.
The nature of data set [14]: Cytotoxicity against human THP1 cells. Format: cell-based. The settings on record: THP-1 cells, read-out: TC50 (the source's name).
The nature of data set [15]: Drug localization in nucleus of Trypanosoma brucei at 5 x 10^-6 M after 4 hrs by DAPI staining-based fluorescence confocal microscopy method. The data set is classed as ADME, subcellular. The settings on record: 5 µM.
A short description of data set [16]: Selectivity index, ratio of TC50 for human THP1 cells to IC50 for Leishmania major MHOM/IL/80/Friedlin amastigotes. Format: toxicity. The conditions noted are these: THP1 cells versus Leishmania major amastigotes, read-out: Selectivity Index.
Data set [17] has as its system Trypanosoma brucei. Kind of data set: Stabilization of 5'-FAM /3'-Tamra labelled Trypanosoma brucei F21T G-quadruplex DNA in presence of 1 x 10^-5 M dsDNA competitior by FRET melting assay.
Data set [18] in a line: Drug uptake in Trypanosoma brucei at 5 x 10^-6 M at 37 degC incubated for 90 mins by flow cytometric analysis. The data set is classed as ADME. The settings on record: 1.5 h, 5 µM. (In general: In flow cytometry, cells or beads pass a laser one at a time.)
Data set [19] is described as follows: Drug uptake in Trypanosoma brucei assessed as reduction in intracellular fluorescence at 5 x 10^-6 M at 4 degreeC incubated for 90 mins by flow cytometric analysis relative to drug uptake at 37 degC. The data set is classed as ADME, cell-based. The settings on record: 1.5 h, 5 µM.
Data set [20] is described as follows: Drug uptake in Trypanosoma brucei assessed as reduction in intracellular fluorescence at 5 x 10^-6 M at 4 to 37 degreeC by flow cytometric analysis. The settings on record: 5 µM, TDE = time-dependent effect. Format: ADME, cell-based.
The test system of another data set is Erythrocyte. Put plainly: Hemolytic activity in mouse RBC after 1 hr. The data set is classed as ADME, cell-based.
Data set [21] concerns Quadruplex DNA. Put plainly: Stabilization of 22AG telomeric G-quadruplex DNA (unknown origin) assessed as reduction in emission at 8 uM by fluorescence absorption emisssion spectroscopy method. Further details: scale not given: the % may be the effect or the level left. The data set is classed as nucleic-acid assay.
In data set [22] the test system is Trypanosoma brucei. Put plainly: Stabilization of 5'-FAM /3'-Tamra labelled Trypanosoma brucei F21T G-quadruplex DNA assessed as change in melting temperature at 5 x 10^-7 M by FRET melting assay.
Data set [23] deals with Trypanosoma brucei. Put plainly: Stabilization of 5'-FAM /3'-Tamra labelled Trypanosoma brucei EBR1-FT G-quadruplex DNA assessed as change in melting temperature at 5 x 10^-7 M by FRET melting assay.
For data set [24], the system named is Trypanosoma brucei. Kind of data set: Stabilization of 5'-FAM /3'-Tamra labelled Trypanosoma brucei EBR1-FT G-quadruplex DNA assessed as impeding of completing melting of DNA at 2 x 10^-6 M by FRET melting assay.
In data set [25] the test system is Quadruplex DNA. Kind of data set: Stabilization of 22AG telomeric G-quadruplex DNA (unknown origin) assessed as reduction in emission at 8 uM by fluorescence absorption emisssion spectroscopy method relative to control. The data set is classed as nucleic-acid assay. Details: scale not given: the % may be the effect or the level left.
For data set [26], the system named is Trypanosoma brucei. Put plainly: Stabilization of 5'-FAM /3'-Tamra labelled Trypanosoma brucei EBR1-FT G-quadruplex DNA assessed as change in melting temperature at 0.5 x 10^-6 M by FRET melting assay.

In general, IC50 refers to the concentration at which inhibition is half-maximal. Regarding `CN(C)CCCN1C(=O)c2ccc3c4c(c(NCCCn5cc(COCCOCCOCCO[C@@H]6O[C@H](CO)[C@@H](O[C@@H]7O[C@H](CO)[C@H](O)[C@H](O)[C@H]7O)[C@H](O)[C@H]6O)nn5)cc(c24)C1=O)C(=O)N(CCCN(C)C)C3=O`, the IC50 with MRC5 was 240 nM; with Leishmania major [5], 170 nM; with Leishmania major [7], 530 nM; in the data set on Trypanosoma brucei [9] it was 40 nM. The result in the data set on Trypanosoma brucei [1], in the data set with Trypanosoma brucei [3], with Trypanosoma brucei [10], in the data set with Trypanosoma brucei [11], with Quadruplex DNA [12] and in the data set on Trypanosoma brucei [17] was Active. In addition, the Ka in the data set on Quadruplex DNA [2] stood at 8.4 ×10⁵ /M; in the data set with Trypanosoma brucei [8], 1.1 ×10⁶ /M. For the same molecule, the Drug uptake result in data set [4] and in data set [15] was “Active” each time. The selectivity ratio was determined as 6 in [6] and 10.8 in data set [16]. Besides, in the data set on Trypanosoma brucei [13], the outcome was inactive. In data set [14], the CC50 came out at 5710 nM.
With `CN(C)CCCN1C(=O)c2ccc3c4c(c(NCCCn5cc(CCO[C@@H]6O[C@H](CO)[C@@H](O)[C@H](O)[C@H]6O)nn5)cc(c24)C1=O)C(=O)N(CCCN(C)C)C3=O`, the half-inhibitory concentration (IC50) in the data set on MRC5 was 450 nM; with Leishmania major [5] it was 70 nM; with Leishmania major [7] it was 720 nM; with Trypanosoma brucei [9], 60 nM. The outcome in the data set with Trypanosoma brucei [1], with Trypanosoma brucei [3], with Trypanosoma brucei [10], with Trypanosoma brucei [11] and in the data set on Trypanosoma brucei [17] was Active. For the same molecule, the Drug uptake result is recorded as “Active” in data set [18]; 36% in data set [19]; “Active” in [4]; “Tde” in data set [20]; “Active” in data set [15]. The Ka came out at 9.2 ×10⁵ /M in the data set with Quadruplex DNA [2] and 1.2 ×10⁶ /M with Trypanosoma brucei [8]. Further, the values for the selectivity ratio in [6] and in [16] were 7.5 and 3, respectively. The values for the Activity in the data set with Quadruplex DNA [12], with Erythrocyte and in the data set with Quadruplex DNA [21] were 10 nm, “Non-Toxic” and 10%, respectively. The result with Trypanosoma brucei [13] was inactive. In addition, the CC50 in data set [14] was 2180 nM.
As for `CN(C)CCCN1C(=O)c2ccc3c4c(c(NCCCn5cc(COCCOCCOCCO[C@@H]6O[C@H](CO)[C@@H](O)[C@H](O)[C@H]6O)nn5)cc(c24)C1=O)C(=O)N(CCCN(C)C)C3=O`, the concentration for half-maximal inhibition (IC50) in the data set with MRC5 stood at 730 nM; with Leishmania major [5], 480 nM; with Leishmania major [7], 480 nM; in the data set on Trypanosoma brucei [9], 440 nM. Moreover, the result with Trypanosoma brucei [1], with Trypanosoma brucei [3], with Trypanosoma brucei [10], in the data set on Trypanosoma brucei [11], in the data set on Quadruplex DNA [12] and in the data set with Trypanosoma brucei [17] was Active. In addition, the Ka with Quadruplex DNA [2] is 4.8 ×10⁵ /M; with Trypanosoma brucei [8], 6.9 ×10⁵ /M. Besides, the Drug uptake entry in data set [4] and in data set [15] was “Active” throughout. For the same molecule, the selectivity ratio in data set [6] stood at 1.6; in [16], 3.9. For the same molecule, the outcome with Trypanosoma brucei [13] was inactive. Moreover, the CC50 in data set [14] is 1860 nM.
The ΔTm is the change in melting temperature against a reference sample. Consider `CN(C)CCCc1cc2c3c(c(NCCCn4cc(CCO[C@@H]5O[C@H](CO)[C@@H](O)[C@H](O)[C@H]5O)nn4)cc4c3c1C(=O)N(CCCN(C)C)C4=O)C(=O)N(CCCN(C)C)C2=O`, for which the IC50 stood at 7250 nM in the data set on MRC5, 9770 nM with Leishmania major [5] and 240 nM in the data set on Trypanosoma brucei [9]. The outcome in the data set on Trypanosoma brucei [1], in the data set on Trypanosoma brucei [10] and in the data set with Trypanosoma brucei [13] was inactive. The Ka was determined as 4.4 ×10⁶ /M with Quadruplex DNA [2] and 1 ×10⁷ /M in the data set with Trypanosoma brucei [8]. Also, the values for the ΔTm in the data set on Trypanosoma brucei [22], in the data set with Trypanosoma brucei [23] and with Trypanosoma brucei [26] were 22.1 °C, 11.5 °C and 24 °C, respectively. The outcome with Trypanosoma brucei [3], in the data set with Trypanosoma brucei [24] and in the data set on Trypanosoma brucei [17] was Active. Moreover, the Drug uptake result in [4] and in [15] was “Active” throughout. The selectivity ratio in data set [6] was found to be 30.2. Besides, the values for the Activity in the data set on Quadruplex DNA [25] and in the data set with Erythrocyte were 40% and “Non-Toxic”, respectively.
On to `CN(C)CCCN1C(=O)c2ccc3c4c(c(NCCCn5cc(CCO[C@@H]6O[C@H](CO)[C@@H](O[C@@H]7O[C@H](CO)[C@H](O)[C@H](O)[C@H]7O)[C@H](O)[C@H]6O)nn5)cc(c24)C1=O)C(=O)N(CCCN(C)C)C3=O`, for which the IC50 in the data set on MRC5 was determined as 1170 nM; in the data set on Leishmania major [5] it was 1930 nM; in the data set on Leishmania major [7], 4710 nM; in the data set with Trypanosoma brucei [9] it was 330 nM. Moreover, the selectivity ratio in data set [6] was 3.5; in [16] it was more than 2.1. In data set [14], the CC50 is more than 10000 nM.
